{
  "source": "patent US20110313164A1",
  "about": "“LITHIUM DERIVATIVES OF PYRROLOQUINOLINE QUINONE AND PREPARATION METHOD THEREOF” (priority 2009, published 2011)",
  "tested_on": "APP/PSI transgenic mice",
  "assay": "cognitive ability of APP/PSI transgenic mice (FIG. 1)",
  "format": "in vivo",
  "conditions": "intragastric administration, 20-week-old mice, 1.5 and 6 mg/kg of weight",
  "experimental": "Intragastric administration is applied to 20-week-old mice. Wiletype is a wiletype control group; Ctrl is a transgenic control group; DNP is a […] group (1.5 mg/kg of weight); PQQLi 1.5 is a lithium pyrroloquinoline-quinone salt group (1.5 mg/kg of weight); PQQLi 6 is a lithium pyrroloquinoline-quinone group (6 mg/kg of weight). *p<0.05; ** p<0.005; NS: […].",
  "data": [
    {"smiles": "O=C(O)c1cc(C(=O)O)c2c(n1)C(=O)C(=O)c1cc(C(=O)[O-])[nH]c1-2.[Li+]", "note": "[PQQLi, 4,5-dihydroxy-1H-pyrrole[2,3-f]chinoline-2,7,9-tricarboxylic acid, lithium salt]", "values": [
      {"measurement": "cognitive ability", "value": "promotes the cognitive ability"}
    ]}
  ]
}
